PubChem BioAssay (NCI)
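Grown in 96-well plates, cells were treated for 48 hours with each compound at five concentrations. Insufficient inhibition: endpoint recorded as highest concentration tested. GI50 is the concentration that inhibits growth by half. TGI: concentration producing complete growth inhibition.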

Key:
Experiment in all cases: DTP human tumour cell line panel, 48 h
NCI-H522 lung = tested on: NCI-H522 lung
OVCAR-5 ovarian = tested on: OVCAR-5 ovarian
MOLT-4 leukemia = tested on: MOLT-4 leukemia
HOP-62 NSCLC = tested on: HOP-62 NSCLC
PC-3 prostate = tested on: PC-3 prostate
SR leukemia = tested on: SR leukemia
HCC-2998 colon = tested on: HCC-2998 colon

| Compound | TGI (NCI-H522 lung) [µM] | TGI (OVCAR-5 ovarian) [µM] | TGI (MOLT-4 leukemia) [µM] | TGI (HOP-62 NSCLC) [µM] | TGI (PC-3 prostate) [µM] | TGI (SR leukemia) [µM] | GI50 (NCI-H522 lung) [µM] | GI50 (OVCAR-5 ovarian) [µM] | GI50 (MOLT-4 leukemia) [µM] | GI50 (HOP-62 NSCLC) [µM] | GI50 (PC-3 prostate) [µM] | GI50 (HCC-2998 colon) [µM] | TGI (HCC-2998 colon) [µM] | GI50 (SR leukemia) [µM] |
| --- | --- | --- | --- | --- | --- | --- | --- | --- | --- | --- | --- | --- | --- | --- |
| O=[N+]([O-])c1ccc2nnnn2c1 | 13.2 | > 100 | > 100 | > 100 | > 100 | 87.1 | – | – | – | – | – | – | – | – |
| COc1cc([N+](=O)[O-])ccc1NC(=O)C(F)(F)F | > 100 | > 100 | > 100 | > 100 | > 100 | > 100 | – | – | – | – | – | – | – | – |
| Cn1cc(-c2csc(-c3cccc(F)c3)n2)c2cccnc21 | 36 | 31.5 | 34.6 | 34.5 | 39.5 | > 100 | 15.9 | 14.8 | 11.7 | 18.9 | 16.2 | 18.9 | 33.6 | 13.5 |
| CC(C)CC(N)C(=O)O (stereo unspecified) | > 100 | – | > 100 | > 100 | > 100 | – | – | – | – | – | – | – | – | – |
| Cc1cc(C)cc(Nc2cc(C)nc3nc(C(F)(F)F)nn23)c1 | – | > 100 | > 100 | > 100 | > 100 | > 100 | – | > 100 | > 100 | 44 | > 100 | > 100 | > 100 | > 100 |
| COc1cc2c3c(n(CCCCl)c(=O)c2cc1OC)-c1ccccc1C3=O | > 100 | – | 96.6 | 44.5 | > 100 | – | 5.31 | – | 2.18 | 4.49 | > 100 | > 100 | > 100 | – |
| N#C/C(C(=S)Nc1ccccc1)=C1/NN=C2c3ccccc3C(=O)NN21 | 63.3 | > 100 | > 100 | > 100 | – | > 100 | 11.8 | 56.1 | 32.1 | 44.4 | – | 24.1 | > 100 | 19.5 |
| CCOC(=O)c1c(C)n(Cc2ccc(OC)cc2)c2c1cc(O)c1[nH]c3c(c12)CCCC3 | 3.97 | 17.5 | – | 24.9 | 37.4 | – | 1.75 | 2.39 | – | 10.5 | 2.86 | 2.39 | 14.5 | – |
| COc1cccc(NCc2nnc(Nc3ccc(Cl)cc3)c3ccccc23)c1 | 3.31 | 11.8 | 7.57 | 8.48 | 9.33 | 8.85 | 0.302 | 3.38 | 1.1 | 2.06 | 1.19 | 3.44 | 8.79 | 0.979 |
| CCCCNC(=O)NS(=O)(=O)c1ccc(N2N=C(c3ccc(C)cc3C)CC2c2ccc(N(C)C)cc2)cc1 (stereo unspecified) | 14.8 | 96.1 | > 100 | > 100 | > 100 | – | 3.25 | 5.24 | 3.61 | 6.86 | 3.34 | 2.25 | 5.1 | – |
| CC(C)(C)OC(=O)N(CCCN(CCn1c2c(c3ccccc3c1=O)C(=O)c1ccccc1-2)C(=O)OC(C)(C)C)CCn1c2c(c3ccccc3c1=O)C(=O)c1ccccc1-2 | > 50 | > 50 | 16 | > 50 | > 50 | 8.87 | 47.6 | > 50 | 6.46 | 22.3 | > 50 | – | – | 2.07 |
| C[C@]12CC[C@@H]3c4ccc(O)cc4C[C@@H](CCCCCCCCCS(=O)CCCC(F)(F)C(F)(F)F)[C@H]3[C@@H]1CC[C@@H]2O (stereo partly specified) | > 100 | > 100 | > 100 | > 100 | > 100 | > 100 | > 26.2 | > 100 | > 100 | > 67.4 | > 100 | > 100 | > 100 | > 100 |
| CC12CCCC(CC(=O)c3[nH]c4ccccc4c31)C2 (stereo unspecified) | 5.29 | > 100 | 40.9 | 50 | > 100 | 66.1 | 0.451 | 2.82 | 0.492 | 0.813 | 0.698 | 1.79 | 24.6 | 0.238 |
| CCCCCCCCCCC(O)C1CCC(C2CCC(C(O)CCCCC(O)CCCCCC(O)CC3=CC(C)OC3=O)O2)O1 (stereo unspecified) | > 25 | > 25 | > 25 | > 25 | > 25 | > 25 | – | – | 2.57 | 7.3 | 2.79 | – | > 25 | – |
| CN1C(NC(=O)c2ccc(Cl)nc2)=NS(=O)(=O)c2cc(Cl)ccc21 | > 100 | – | > 100 | > 100 | > 100 | > 100 | > 100 | – | > 100 | > 100 | > 100 | > 100 | > 100 | > 100 |
| COc1cc(C(=O)O[C@H](C(N)=O)[C@]2(C)CO2)c2ccccc2c1 | > 100 | 33.1 | 48.9 | 17.9 | > 100 | – | 33.2 | 11.5 | 17 | 5.72 | 25 | – | – | – |
| CC(C)(C)C1=CC(=CC=C2C=CN(CCCCCCCCCCCO)C=C2)C=C(C(C)(C)C)C1=O | 1.29 | 6.52 | 4.74 | 3.63 | 3.68 | – | – | – | – | – | – | – | 2.27 | – |
| O=C(O)C1C(C(=O)O)C(C(=O)O)C1C(=O)O (stereo unspecified) | > 100 | > 100 | > 100 | > 100 | > 100 | > 100 | – | – | – | – | – | – | – | – |
| CCCCC/C=C/C/C=C/CCCCCCCC1=NC(C)(C)CN1C(C)C | 3.17 | 4.1 | – | 3.17 | 3.41 | – | 1.72 | 1.87 | – | 1.58 | 1.7 | 1.67 | 3.06 | – |
| COc1ccc(-n2c(SCc3cc(OC)c(OC)c(OC)c3)nc3ccc(C)cc3c2=O)cc1 | > 100 | > 100 | > 100 | > 100 | > 100 | – | 4.41 | > 100 | 5.19 | 29.1 | 2.83 | > 100 | > 100 | – |
